# Source: patent publication US20250205233A1, “EPIDERMAL GROWTH FACTOR RECEPTOR (EGFR) TYROSINE KINASE INHIBITORS IN COMBINATION WITH AN AKT INHIBITOR FOR THE TREATMENT OF CANCER” (AstraZeneca AB, priority 2022, published 2025)
# Entries after “also recorded” stand apart in the source; their conditions may differ. Where two headings read alike, the source gives them in different places.
# What was measured:
# PC9-PIK3CAm cells = assay: Clonogenic assay; type: cell-based, human; conditions: osimertinib 160 nM, 8 days, crystal violet
# Description: Cells were stained with Crystal violet at the end of the treatment (8 days) and cell density (% surface) quantified by ImageJ.
# [1] = system: PIK3CA H1047R and PIK3CA E453K-positive cells; assay: Osimertinib selection of CRISPR knock-in cell pools, DNA sequencing; type: cell-based, human; conditions: osimertinib (100 nM) for 3 weeks; NGS and SANGER sequencing
# Description: As the efficiency of knock-ins using this technology is usually low, only a small proportion of cells was expected to be genetically modified, thus mimicking the emergence of a co-occurring resistance mutation in a tumour.
# HCC-827 PTEN^KO cells = type: cell-based, human
# [2] = system: HCC-827 PTEN^KO xenograft; conditions: mouse
# Description: (§1) e) PC9 PTEN-KO and HCC827 PTEN-KO cell lines were cultured in RPMI1640 supplemented with 10% FCS and cultured in a humidified incubator with 5% CO2 at 37° C. PC9 PTEN-KO and HCC827 PTEN-KO xenografts were established by subcutaneous implantation of 5×10^6, cells per animal, in 100 μL of cell suspension including 50% matrigel, into the flank of female NOD/SCID and nude mice respectively. All mice were older than 6 weeks at the time of cell implant. Tumour growth was monitored twice weekly by bilateral calliper measurements and tumour volume calculated using the formula TV (mm3)=[length (mm)×width (mm)2]×0.5, where the length and the width are the longest and the shortest diameters of the tumour.
# PC9 PTEN^KO xenograft = assay: Xenograft model, tumour volume; type: in vivo, NOD/SCID mice
# Description: as §1
# PC9 PTEN^KO cells = assay: Clonogenic assay (long term); type: cell-based, human; conditions: 160 nM osimertinib
# PC9 PIK3CA^H1047R cells = conditions: osimertinib alone
# [3] = system: P-EGFR, MAPK signalling, P-AKT and P-S6 in PC9-PIK3CAm cells; assay: Intracellular changes by WB analysis; type: cell-based, human; conditions: 4 h
# [4] = system: p-S6 in PC9 PTEN^KO cells; assay: Intracellular changes by WB analysis; type: cell-based, human; conditions: treated for 3 weeks with osimertinib 160 nM
smiles,measurement,setting,value
"C=CC(=O)Nc1cc(Nc2nccc(-c3cn(C)c4ccccc34)n2)c(OC)cc1N(C)CCN(C)C [osimertinib, N-(2-{2-dimethylaminoethyl-methylamino}-4-methoxy-5-{[4-(1-methylindol-3-yl)pyrimidin-2-yl]amino}phenyl)prop-2-enamide]",clonogenic growth (cell density): resistance to osimertinib compared to parental PC9,PC9-PIK3CAm cells,developed resistance
same,outgrowth of PIK3CA-mutant cells under osimertinib selection,[1],conferred resistance
same,clonogenic growth: resistance to osimertinib compared to parental cells,HCC-827 PTEN^KO cells,resulted in osimertinib resistance; also recorded: develop resistance
same,cell density (% surface) higher than parental HCC-827,"HCC-827 PTEN^KO cells; 160 nM osimertinib, after 3 weeks",20 X
same,degree of resistance to Osimertinib in vivo,[2],at best very modest
same,degree of resistance to Osimertinib in vivo,PC9 PTEN^KO xenograft,at best very modest
same,cell density higher than parental PC9 cells,PC9 PTEN^KO cells,2 ×
same,clonogenic growth: resistance to osimertinib compared to parental cells,PC9 PTEN^KO cells; 3 or 5 weeks,milder resistance phenotype; also recorded: develop resistance
same,osimertinib-induced apoptotic response (caspase 3/7 activation) compared to parental PC9,PC9 PIK3CA^H1047R cells,diminished apoptotic response
same,osimertinib-induced apoptotic response (caspase 3/7 activation) compared to parental PC9,PC9 PIK3CA^H1047R cells; listed as Osimertinib,Diminished apoptotic response
same,levels of P-AKT and P-S6 (western blot),"[3]; 160 nM osimertinib alone, PC9-PIK3CAm cells",refractory
same,P-EGFR levels and MAPK signalling (western blot),"[3]; 160 nM osimertinib, parental and PC9-PIK3CAm cells",downregulation of P-EGFR levels and MAPK signalling
same,p-S6 levels (western blot),[4],persistent p-S6 levels
